This test addresses T1, human mGlu4 receptor (Homo sapiens, UniProt Q14833).
T1 construct: expressed in transfected cells; host or cells: monoclonal HEK-293 cell line, stably transfected
The test can be described thus: Ca2+ mobilization in vitro assay on recombinant human mGlu4 expressed in HEK293 cells (PAM, L-AP4 at EC20). As to conditions: for Emax: HEK293, maximal response in % of the maximal stimulatory effect obtained with saturating concentrations of L-AP4, read-out: Eff. (%); for EC50: HEK293 cells expressing human mGlu4, L-AP4 added at EC20. In kind it is cell-based. An excerpt: FIG. 1: Illustration of the experimental outline for mGlu4 PAM Ca2+ mobilization screening assay and the determination of EC50 and % Emax values.
Determination of EC50 Values Using a Ca2+ Mobilization In Vitro Assay on Recombinant Human mGlu4 Expressed in HEK293 Cells:
A monoclonal HEK-293 cell line stably transfected with a cDNA encoding for the human mGlu4 receptor was generated; for the work with mGlu4 Positive Allosteric Modulators (PAMs), a cell line with low receptor expression levels and low constitutive receptor activity was selected to allow the differentiation of agonistic versus PAM activity. Cells were cultured according to standard protocols (Freshney, 2000) in Dulbecco's Modified Eagle Medium with high glucose supplemented with 1 mM glutamine, 10% (vol/vol) heat-inactivated bovine calf serum, Penicillin/Streptomycin, 50 μg/ml hygromycin and 15 μg/ml blasticidin (all cell culture reagents and antibiotics from Invitrogen, Basel, Switzerland).
About 24 hrs before an experiment, 5×10^4 cells/well were seeded in poly-D-lysine coated, black/clear-bottomed 96-well plates. The cells were loaded with 2.5 μM Fluo-4AM in loading buffer (1×HBSS, 20 mM HEPES) for 1 hr at 37° C. and washed five times with loading buffer. The cells were transferred into a Functional Drug Screening System 7000 (Hamamatsu, Paris, France), and 11 half logarithmic serial dilutions of test compound at 37° C. were added and the cells were incubated for 10-30 min. with on-line recording of fluorescence. Following this pre-incubation step, the agonist (2S)-2-amino-4-phosphonobutanoic acid (L-AP4) was added to the cells at a concentration corresponding to EC20 with on-line recording of fluorescence; in order to account for day-to-day variations in the responsiveness of cells, the EC20 of L-AP4 was determined immediately ahead of each experiment by recording of a full dose-response curve of L-AP4. Responses were measured as peak increase in fluorescence minus basal (i.e. fluorescence without addition of L-AP4), normalized to the maximal stimulatory effect obtained with saturating concentrations of L-AP4. Graphs were plotted with the % maximal stimulatory using XLfit, a curve fitting program that iteratively plots the data using Levenburg Marquardt algorithm. The single site competition analysis equation used was y=A+((B−A)/(1+((x/C)D))), where y is the % maximal stimulatory effect, A is the minimum y, B is the maximum y, C is the EC50, x is the log 10 of the concentration of the competing compound and D is the slope of the curve (the Hill Coefficient). From these curves the EC50 (drug concentration at which 50% of the maximal receptor activation was achieved), the Hill coefficient as well as the maximal response in % of the maximal stimulatory effect obtained with saturating concentrations of L-AP4 were calculated (see FIG. 1). […] A depression of the signal observed after addition of the EC20 concentration of L-AP4 was indicative of an inhibitory activity of the test compound.
(Calcium flux is commonly read through the fluorescence of an indicator in the cells.)

T1 sequence (Q14833 33-912): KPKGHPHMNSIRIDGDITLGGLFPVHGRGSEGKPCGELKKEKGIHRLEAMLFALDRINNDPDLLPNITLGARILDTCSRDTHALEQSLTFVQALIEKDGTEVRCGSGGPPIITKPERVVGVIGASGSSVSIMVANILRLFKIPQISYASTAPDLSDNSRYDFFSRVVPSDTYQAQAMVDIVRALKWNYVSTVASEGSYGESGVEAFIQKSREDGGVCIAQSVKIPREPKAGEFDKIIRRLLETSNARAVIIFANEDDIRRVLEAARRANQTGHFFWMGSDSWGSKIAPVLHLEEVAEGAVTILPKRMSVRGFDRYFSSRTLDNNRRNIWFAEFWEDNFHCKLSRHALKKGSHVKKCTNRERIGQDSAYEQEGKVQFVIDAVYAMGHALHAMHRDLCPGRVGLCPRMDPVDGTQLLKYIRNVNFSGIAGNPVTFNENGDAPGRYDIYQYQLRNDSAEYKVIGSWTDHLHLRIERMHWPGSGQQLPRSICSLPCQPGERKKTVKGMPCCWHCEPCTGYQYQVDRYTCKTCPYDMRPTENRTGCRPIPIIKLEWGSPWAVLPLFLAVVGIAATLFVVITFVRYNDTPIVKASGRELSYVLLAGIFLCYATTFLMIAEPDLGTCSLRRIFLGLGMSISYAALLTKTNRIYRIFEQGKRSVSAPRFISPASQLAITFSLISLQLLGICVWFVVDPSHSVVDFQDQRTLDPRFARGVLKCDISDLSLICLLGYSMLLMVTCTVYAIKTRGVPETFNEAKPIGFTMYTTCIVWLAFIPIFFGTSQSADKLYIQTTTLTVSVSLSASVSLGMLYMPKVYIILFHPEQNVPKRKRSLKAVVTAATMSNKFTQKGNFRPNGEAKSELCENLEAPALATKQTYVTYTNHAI

As for `CN1C(=O)N(c2c(F)cc(C#Cc3ccccc3)cc2F)C(=O)C[C@@]1(C)c1ccns1` [Example 43, (6S)-3-[2,6-Difluoro-4-(2-phenylethynyl)phenyl]-6-isothiazol-5-yl-1,6-dimethyl-hexahydropyrimidine-2,4-dione], the Emax is 151% and the EC50 amounted to 67 nM.

For the molecule `CN1C(=O)N(c2c(F)cc(C#Cc3ccccc3)cc2F)C(=O)C[C@@]1(C)c1cncn1C` [Example 11, (6S)-3-[2,6-Difluoro-4-(2-phenylethynyl)phenyl]-1,6-dimethyl-6-(3-methylimidazol-4-yl)hexahydropyrimidine-2,4-dione], the Emax stood at 91% and the EC50 was 59 nM.

On to `CN1C(=O)N(c2c(F)cc(C#Cc3ccccc3)cc2F)C(=O)C[C@@]1(C)c1cnn[nH]1` [Example 32, (6S)-3-[2,6-Difluoro-4-(2-phenylethynyl)phenyl]-1,6-dimethyl-6-(1H-triazol-5-yl)hexahydropyrimidine-2,4-dione], for which the Emax is 114% and the EC50 was 20 nM.

Regarding `CN1C(=O)N(c2c(F)cc(C#Cc3ccccc3)cc2F)C(=O)C[C@@]1(C)c1cn(C)nn1` [Example 34, (6S)-3-[2,6-Difluoro-4-(2-phenylethynyl)phenyl]-1,6-dimethyl-6-(1-methyltriazol-4-yl)hexahydropyrimidine-2,4-dione], the Emax came out at 207% and the EC50 was determined as 71 nM.

As to `CN1C(=O)N(c2c(F)cc(C#Cc3ccccc3)cc2F)C(=O)C[C@@]1(C)c1ccn(CC(C)(C)O)n1` [Example 63, (6S)-3-[2,6-Difluoro-4-(2-phenylethynyl)phenyl]-6-[1-(2-hydroxy-2-methyl-propyl)pyrazol-3-yl]-1,6-dimethyl-hexahydropyrimidine-2,4-dione], the Emax was found to be 99% and the half-maximal effective concentration (EC50) came to 71 nM.

Regarding `CN1C(=O)N(c2c(F)cc(C#Cc3ccccc3)cc2F)C(=O)C[C@@]1(C)c1ccno1` [Example 41, (6S)-3-[2,6-Difluoro-4-(2-phenylethynyl)phenyl]-6-isoxazol-5-yl-1,6-dimethyl-hexahydropyrimidine-2,4-dione], the Emax turned out to be 165% and the concentration giving a half-maximal response (EC50) worked out at 123 nM.

On to `CN1C(=O)N(c2c(F)cc(C#Cc3cccc(F)c3F)cc2F)C(=O)C[C@@]1(C)c1cn[nH]c1` [Example 55, (6S)-3-[4-[2-(2,3-Difluorophenyl)ethynyl]-2,6-difluoro-phenyl]-1,6-dimethyl-6-(1H-pyrazol-4-yl)hexahydropyrimidine-2,4-dione], for which the Emax was 134% and the EC50 worked out at 54 nM.

Regarding `COCCn1ccc([C@]2(C)CC(=O)N(c3c(F)cc(C#Cc4ccccc4)cc3F)C(=O)N2C)n1` [Example 30, (6S)-3-[2,6-Difluoro-4-(2-phenylethynyl)phenyl]-6-[1-(2-methoxyethyl)pyrazol-3-yl]-1,6-dimethyl-hexahydropyrimidine-2,4-dione], the Emax stood at 143% and the EC50 turned out to be 59 nM.

For `Cn1cc([C@]2(C)CC(=O)N(c3c(F)cc(C#Cc4ccccc4)cc3F)C(=O)N2)cn1` [Example 5, (6S)-3-[2,6-Difluoro-4-(2-phenylethynyl)phenyl]-6-methyl-6-(1-methylpyrazol-4-yl)hexahydropyrimidine-2,4-dione], the Emax is 103% and the EC50 was 110 nM.

Take `CN1C(=O)N(c2c(F)cc(C#Cc3ccccc3)cc2F)C(=O)C[C@@]1(C)c1cnn2ccccc12` [Example 14, (6S)-3-[2,6-Difluoro-4-(2-phenylethynyl)phenyl]-1,6-dimethyl-6-pyrazolo[1,5-a]pyridin-3-yl-hexahydropyrimidine-2,4-dione]: the Emax is 137% and the EC50 worked out at 93 nM.

For `CN1C(=O)N(c2c(F)cc(C#Cc3ccccc3)cc2F)C(=O)C[C@@]1(C)c1ncnn1C` [Example 4, (6S)-3-[2,6-Difluoro-4-(2-phenylethynyl)phenyl]-1,6-dimethyl-6-(2-methyl-1,2,4-triazol-3-yl)hexahydropyrimidine-2,4-dione], the Emax came to 95% and the EC50 is 136 nM.

The term EC50 denotes the concentration at which the effect is half-maximal.

The values are drawn from patent publication US10065956B2, “Ethynyl derivatives” (Hoffmann-La Roche Inc., priority 2015, dated 2018).
